The text below walks through data of US9822130B2, “Triazolo-pyrazinyl derivatives useful as soluble guanylate cyclase activators” (Merck Sharp & Dohme Corp., priority 2014, dated 2017).

The target of this test is T1, sGC α1/β1 heterodimer stably expressed in CHO-K1 cell line (CHO-K1/sGC) (Homo sapiens, UniProt Q02108+Q02153).
T1 construct: expressed in transfected cells
T1 sequence (Q02108 1-690): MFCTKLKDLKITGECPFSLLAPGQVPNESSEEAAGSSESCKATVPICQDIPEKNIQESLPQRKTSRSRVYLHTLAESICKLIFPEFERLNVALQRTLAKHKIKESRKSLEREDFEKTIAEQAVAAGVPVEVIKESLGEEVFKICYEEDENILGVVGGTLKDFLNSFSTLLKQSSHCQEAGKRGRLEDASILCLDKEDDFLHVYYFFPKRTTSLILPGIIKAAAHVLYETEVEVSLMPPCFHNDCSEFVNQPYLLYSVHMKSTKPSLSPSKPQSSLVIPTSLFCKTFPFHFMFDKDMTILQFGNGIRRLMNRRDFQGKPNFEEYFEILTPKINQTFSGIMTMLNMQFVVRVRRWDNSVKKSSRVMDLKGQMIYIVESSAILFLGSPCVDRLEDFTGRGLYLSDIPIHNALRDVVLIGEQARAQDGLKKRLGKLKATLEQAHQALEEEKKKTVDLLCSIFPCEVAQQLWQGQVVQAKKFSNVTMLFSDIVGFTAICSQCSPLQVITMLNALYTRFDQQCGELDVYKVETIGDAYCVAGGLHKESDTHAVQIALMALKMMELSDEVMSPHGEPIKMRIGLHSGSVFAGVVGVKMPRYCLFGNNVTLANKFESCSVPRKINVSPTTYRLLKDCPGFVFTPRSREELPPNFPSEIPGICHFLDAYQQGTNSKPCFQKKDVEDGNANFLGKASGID
T1 sequence (Q02153 1-619): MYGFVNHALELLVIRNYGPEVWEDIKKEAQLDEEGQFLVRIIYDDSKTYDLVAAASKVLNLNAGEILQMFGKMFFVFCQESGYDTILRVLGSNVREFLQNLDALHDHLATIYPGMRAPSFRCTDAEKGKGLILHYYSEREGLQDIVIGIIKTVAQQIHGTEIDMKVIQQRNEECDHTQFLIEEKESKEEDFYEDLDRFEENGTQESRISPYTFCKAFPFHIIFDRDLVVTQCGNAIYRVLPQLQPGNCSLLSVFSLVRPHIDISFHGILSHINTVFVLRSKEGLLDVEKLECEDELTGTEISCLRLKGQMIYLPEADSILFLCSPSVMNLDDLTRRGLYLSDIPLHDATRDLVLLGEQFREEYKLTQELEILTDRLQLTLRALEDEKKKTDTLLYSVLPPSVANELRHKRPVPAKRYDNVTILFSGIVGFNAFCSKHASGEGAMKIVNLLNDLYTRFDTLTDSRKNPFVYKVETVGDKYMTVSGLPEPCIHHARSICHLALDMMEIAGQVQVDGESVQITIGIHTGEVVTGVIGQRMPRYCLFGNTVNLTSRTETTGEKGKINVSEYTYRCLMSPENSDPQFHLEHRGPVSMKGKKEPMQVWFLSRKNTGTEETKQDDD
Nature of the test: Cell-based sGC Functional Assay (CASA Assay), cGMP generation. The settings on record: CHO-K1/sGC cells, 1 hr at 37° C., cGMP by HTRF, presence or absence of 1 μM DETA-NO not given; for EC50: 4P fit, read-out: IP (nM) (inflection point). The method in brief: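 Readout is HTRF cGMP in lysates, normalised to the maximal response of reference sGC activator Compound A (100%), with a 4P fit giving IP and fold induction. Cells were CHO-K1/sGC (human α1/β1) in EBSS buffer with IBMX, incubated 1 hr at 37° C with compound. Run with and without 1 μM DETA-NO; final DMSO 2.5%.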
For orientation: In TR-FRET formats the signal depends on donor and acceptor labels being close together.

For `CCCc1nc(-c2nc(O)c3c(n2)NC(=O)C3(C)c2ccc(Cl)cc2)cn2nc(C)nc12` (stereo not drawn) [Example 168A, 5-(4-chlorophenyl)-4-hydroxy-5-methyl-2-(2-methyl-8-propyl-[1,2,4]triazolo[1,5-a]pyrazin-6-yl)-5H-pyrrolo[2,3-d]pyrimidin-6(7H)-one], the EC50 was 1450 nM.
The same measure, in the same setting: next, `Nc1nc(-c2cn3ncnc3c(CCC(F)(F)C(F)(F)F)n2)nc2c1C(c1ccccn1)(C1CC1)C(=O)N2` (stereo not drawn) [Example 114A, 4-amino-5-cyclopropyl-2-(8-(3,3,4,4,4-pentafluorobutyl)-[1,2,4]triazolo[1,5-a]pyrazin-6-yl)-5-(pyridin-2-yl)-5,7-dihydro-6H-pyrrolo[2,3-d]pyrimidin-6-one]: 144 nM; `CCCCc1nc(-c2nc(N)c3c(n2)NC(=O)C3(C)c2ccc(F)cn2)cn2ncnc12` (stereo not drawn) [Example 61B, 4-amino-2-(8-butyl-[1,2,4]triazolo[1,5-d]pyrazin-6-yl)-5-(5-fluoropyridin-2-yl)-5-methyl-5H-pyrrolo[2,3-d]pyrimidin-6(7H)-one]: 9.7 nM.
Turning to `Cc1nc2c(CCC(F)(F)C(F)(F)F)nc(-c3nc(O)c4c(n3)NC(=O)[C@@]4(C)c3ccc(F)cc3)cn2n1` [Example 133B, (S)-5-(4-fluorophenyl)-4-hydroxy-5-methyl-2-(2-methyl-8-(3,3,4,4,4-pentafluorobutyl)-[1,2,4]triazolo[1,5-a]pyrazin-6-yl)-5H-pyrrolo[2,3-d]pyrimidin-6(7H)-one], the EC50 came to 856 nM.
`COc1ccc(C2(C)C(=O)Nc3nc(-c4cn5ncnc5c(CCCC(F)(F)F)n4)nc(N)c32)nc1` (stereo not drawn) [Example 40A, 4-amino-5-(5-methoxypyridin-2-yl)-5-methyl-2-(8-(4,4,4-trifluorobutyl)-[1,2,4]triazolo[1,5-a]pyrazin-6-yl)-5H-pyrrolo[2,3-d]pyrimidin-6(7H)-one]: the EC50 was 98.9 nM.
For the molecule `C[C@@]1(c2ccc(F)cc2)C(=O)Nc2nc(-c3cn4ncnc4c(CCC(F)(F)C(F)(F)F)n3)nc(C(N)=O)c21` [Example 177A, 5-(4-Fluorophenyl)-5-methyl-6-oxo-2-(8-(3,3,4,4,4-pentafluorobutyl)-[1,2,4]triazolo[1,5-a]pyrazin-6-yl)-6,7-dihydro-5H-pyrrolo[2,3-d]pyrimidine-4-carboxamide], the EC50 was 128 nM.
On the same count and under the same terms, next, `CC1(c2ccc(Cl)cn2)C(=O)Nc2nc(-c3cn4ncnc4c(CCC(F)(F)C(F)(F)F)n3)ncc21` (stereo not drawn) [Example 175A, 5-(5-chloropyridin-2-yl)-5-methyl-2-(8-(3,3,4,4,4-pentafluorobutyl)-[1,2,4]triazolo[1,5-a]pyrazin-6-yl)-5H-pyrrolo[2,3-d]pyrimidin-6(7H)-one]: 384 nM.
Regarding `CCCCc1nc(-c2nc(O)c3c(n2)NC(=O)C3(C)c2ccc(Cl)cc2)cn2ncnc12` (stereo not drawn) [Example 157A, 2-(8-butyl-[1,2,4]triazolo[1,5-a]pyrazin-6-yl)-5-(4-chlorophenyl)-4-hydroxy-5-methyl-5H-pyrrolo[2,3-d]pyrimidin-6(7H)-one], the EC50 came out at 72.7 nM.
Still for that read-out and setting: to `C[C@@]1(c2ccc(F)cc2)C(=O)Nc2nc(-c3cn4ncnc4c(Cc4cccc(O)c4)n3)nc(N)c21` [Example 113B, (S)-4-amino-5-(4-fluorophenyl)-2-(8-(3-hydroxybenzyl)-[1,2,4]triazolo[1,5-a]pyrazin-6-yl)-5-methyl-5H-pyrrolo[2,3-d]pyrimidin-6(7H)-one] belongs 763 nM; to `N#Cc1ccc(C2(C3CC3)C(=O)Nc3nc(-c4cn5ncnc5c(CCCC(F)(F)F)n4)nc(N)c32)nc1` (stereo not drawn) [Example 117A, 6-(4-Amino-5-cyclopropyl-6-oxo-2-(8-(4,4,4-trifluorobutyl)-[1,2,4]triazolo[1,5-a]pyrazin-6-yl)-6,7-dihydro-5H-pyrrolo[2,3-d]pyrimidin-5-yl)nicotinonitrile], 49.2 nM.
As to `CCCc1nc(-c2nc(N)c3c(n2)NC(=O)C3(c2ccc(C(F)(F)F)cn2)C2CC2)cn2ncnc12` (stereo not drawn) [Example 56A, 4-amino-5-cyclopropyl-2-(8-propyl-[1,2,4]triazolo[1,5-a]pyrazin-6-yl)-5-(5-(trifluoromethyl)pyridin-2-yl)-5H-pyrrolo[2,3-d]pyrimidin-6(7H)-one], the EC50 stood at 384 nM.
For the molecule `C[C@@]1(c2ccc(F)cc2)C(=O)Nc2nc(-c3cn4ncnc4c(CCC(F)(F)F)n3)ncc21` [Example 174A, (S)-5-(4-fluorophenyl)-5-methyl-2-(8-(3,3,3-trifluoropropyl)-[1,2,4]triazolo[1,5-a]pyrazin-6-yl)-5,7-dihydro-6H-pyrrolo[2,3-d]pyrimidin-6-one], the EC50 was determined as 1350 nM.
With `CC(C)Cc1nc(-c2nc(O)c3c(n2)NC(=O)[C@@]3(C)c2ccc(F)cc2)cn2ncnc12` [Example 163A, (S)-5-(4-fluorophenyl)-4-hydroxy-2-(8-isobutyl-[1,2,4]triazolo[1,5-a]pyrazin-6-yl)-5-methyl-5,7-dihydro-6H-pyrrolo[2,3-d]pyrimidin-6-one], the EC50 came to 1630 nM.
Regarding `CCCCc1nc(-c2nc(N)c3c(n2)NC(=O)C3(c2nnc(C(F)(F)F)o2)C2CC2)cn2ncnc12` (stereo not drawn) [Example 105A, 4-amino-2-(8-butyl-[1,2,4]triazolo[1,5-a]pyrazin-6-yl)-5-cyclopropyl-5-(5-(trifluoromethyl)-1,3,4-oxadiazol-2-yl)-5H-pyrrolo[2,3-d]pyrimidin-6(7H)-one], the EC50 was determined as 26.7 nM.
As to `Nc1nc(-c2cn3ncnc3c(CCC(F)(F)C(F)(F)F)n2)nc2c1C(c1ccc(Cl)cn1)(C1CC1)C(=O)N2` (stereo not drawn) [Example 7A, 4-amino-5-(5-chloropyridin-2-yl)-5-cyclopropyl-2-(8-(3,3,4,4,4-pentafluorobutyl)-[1,2,4]triazolo[1,5-a]pyrazin-6-yl)-5H-pyrrolo[2,3-d]pyrimidin-6(7H)-one], the EC50 worked out at 41.4 nM.
In the case of `COc1ccc(C2(C)C(=O)Nc3nc(-c4cn5ncnc5c(CCCC(F)(F)F)n4)nc(O)c32)nc1` (stereo not drawn) [Example 148A, 4-hydroxy-5-(5-methoxypyridin-2-yl)-5-methyl-2-(8-(4,4,4-trifluorobutyl)-[1,2,4]triazolo[1,5-a]pyrazin-6-yl)-5H-pyrrolo[2,3-d]pyrimidin-6(7H)-one], the EC50 was found to be 1090 nM.
As to `CC1(c2cncc(F)c2)C(=O)Nc2nc(-c3cn4ncnc4c(CCC(F)(F)C(F)(F)F)n3)nc(N)c21` (stereo not drawn) [Example 9A, 4-amino-5-(5-fluoropyridin-3-yl)-5-methyl-2-(8-(3,3,4,4,4-pentafluorobutyl)-[1,2,4]triazolo[1,5-a]pyrazin-6-yl)-5H-pyrrolo[2,3-d]pyrimidin-6(7H)-one], the EC50 was found to be 63 nM.
Same read-out and setting: next, `Nc1nc(-c2cn3ncnc3c(CCC(F)(F)F)n2)nc2c1C(c1ccc(Cl)cn1)(C1CC1)C(=O)N2` (stereo not drawn) [Example 82A, 4-amino-5-(5-chloropyridin-2-yl)-5-cyclopropyl-2-(8-(3,3,3-trifluoropropyl)-[1,2,4]triazolo[1,5-a]pyrazin-6-yl)-5H-pyrrolo[2,3-d]pyrimidin-6(7H)-one]: 555 nM.
On the same count and under the same terms, next, `CC1(c2ccccc2F)C(=O)Nc2nc(-c3cn4ncnc4c(CCC(F)(F)C(F)(F)F)n3)nc(O)c21` (stereo not drawn) [Example 170A, 5-(2-Fluorophenyl)-4-hydroxy-5-methyl-2-(8-(3,3,4,4,4-pentafluorobutyl)-[1,2,4]triazolo [1,5-a]pyrazin-6-yl)-5,7-dihydro-6H-pyrrolo [2,3-d]pyrimidin-6-one]: 9.5 nM.
As to `CCCc1nc(-c2nc(O)c3c(n2)NC(=O)C3(c2ccc(F)c(F)c2)C2CC2)cn2ncnc12` (stereo not drawn) [Example 167A, 5-cyclopropyl-5-(3,4-difluorophenyl)-4-hydroxy-2-(8-propyl-[1,2,4]triazolo[1,5-a]pyrazin-6-yl)-5H-pyrrolo[2,3-d]pyrimidin-6(7H)-one], the EC50 was 1090 nM. In addition, the Emax (read-out: % Act. (percent activation relative to maximum cGMP production of Compound A = 100%)) was 70%.
